#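 Briefly, cells in 96-well plates were exposed to five compound concentrations for 48 h, and endpoints were estimated by linear interpolation. GI50 is the concentration that inhibits growth by half.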 The source made the active and inactive calls. Rule as the data show it: active = GI50 up to about 1.1 µM and inactive = higher.
# Columns and labels:
# Assay in all cases: NCI anticancer screen, dose series, 48 h
# DLD-1 = test system: DLD-1
# DMS-114 = test system: DMS-114
# DMS-273 = test system: DMS-273
# HOP-18 = test system: HOP-18
# KM-20L2 = test system: KM-20L2
# M19-MEL = test system: M19-MEL
# RXF 631 = test system: RXF 631
# SNB-78 = test system: SNB-78
# XF498 = test system: XF498
Structure (SMILES),GI50 (DLD-1),GI50 (DMS-114),GI50 (DMS-273),GI50 (HOP-18),GI50 (KM-20L2),GI50 (M19-MEL),GI50 (RXF 631),GI50 (SNB-78),GI50 (XF498)
O=[N+]([O-])c1ccc2nc3ccscc-3c2c1,9.64 µM (inactive),16.9 µM (inactive),12.2 µM (inactive),14.1 µM (inactive),25.2 µM (inactive),20.1 µM (inactive),14.8 µM (inactive),23 µM (inactive),17.1 µM (inactive)
CC(=O)[C@]1(O)Cc2c(O)c3c(c(O)c2[C@@H](OC2CC(N)C(O)C(C)O2)C1)C(=O)c1c(OCc2ccccc2)cccc1C3=O (some centres not stated),,1.36 µM (inactive),0.302 µM (active),1.71 µM (inactive),1.15 µM (inactive),,,4.38 µM (inactive),1.6 µM (inactive)
COc1ccccc1NC(=O)C(CC(C(=O)Nc1ccccc1OC)/C(C)=N/Nc1ccc([N+](=O)[O-])cc1[N+](=O)[O-])/C(C)=N/Nc1ccc([N+](=O)[O-])cc1[N+](=O)[O-] (configuration not stated),80.4 µM (inactive),,56 µM (inactive),> 95.3 µM (inactive),> 100 µM (inactive),> 100 µM (inactive),40.6 µM (inactive),> 100 µM (inactive),51.6 µM (inactive)
CC1CCC2(C(=O)O)CCC3(C)C(=CCC4C5(C)CCC(O)C(C)(C)C5CCC43C)C2C1C (configuration not stated),6.53 µM (inactive),9.42 µM (inactive),10.9 µM (inactive),15.5 µM (inactive),8.24 µM (inactive),8.17 µM (inactive),,13.3 µM (inactive),5.86 µM (inactive)
COc1cc(C)c2c(c1C)OC(=O)c1c(C)c(Cl)c(O)c(C=O)c1O2,11.6 µM (inactive),,14.9 µM (inactive),,22.6 µM (inactive),,15.5 µM (inactive),13.2 µM (inactive),12.3 µM (inactive)
NC(CCc1nc(-c2ccc(Cl)cc2)cs1)C(=O)O (configuration not stated),> 100 µM (inactive),,> 100 µM (inactive),> 100 µM (inactive),> 100 µM (inactive),> 100 µM (inactive),> 100 µM (inactive),> 100 µM (inactive),
O=[N+]([O-])c1ccc2c(Nc3ccccc3-c3ccccc3Nc3c4ccccc4nc4cc([N+](=O)[O-])ccc34)c3ccccc3nc2c1,2.63 µM (inactive),11.1 µM (inactive),4.58 µM (inactive),> 100 µM (inactive),5.32 µM (inactive),6.56 µM (inactive),5.9 µM (inactive),> 100 µM (inactive),1.59 µM (inactive)
CC1(C)C(=O)C(C)(C)C1=NNC(N)=S,,> 100 µM (inactive),> 100 µM (inactive),,> 100 µM (inactive),> 100 µM (inactive),> 100 µM (inactive),> 100 µM (inactive),> 100 µM (inactive)
CCCN(CCCC(NC(C)=O)C(=O)NCc1ccccc1)C(=O)NC (configuration not stated),> 100 µM (inactive),> 100 µM (inactive),> 100 µM (inactive),,> 100 µM (inactive),> 100 µM (inactive),> 100 µM (inactive),> 100 µM (inactive),
CCN(C(=N)C#N)c1ccccc1,> 40.7 µM (inactive),> 54.8 µM (inactive),> 42.5 µM (inactive),> 100 µM (inactive),> 100 µM (inactive),> 55.1 µM (inactive),> 100 µM (inactive),,
CC(=O)CCn1[nH]c(=O)c(Cl)c(Cl)c1=O,> 100 µM (inactive),> 100 µM (inactive),> 100 µM (inactive),> 100 µM (inactive),> 100 µM (inactive),> 100 µM (inactive),,> 100 µM (inactive),> 100 µM (inactive)
Nc1nc(N)c2ncn(CCOC(c3ccccc3)P(=O)(O)O)c2n1 (configuration not stated),> 100 µM (inactive),> 100 µM (inactive),> 100 µM (inactive),,> 100 µM (inactive),> 100 µM (inactive),,> 100 µM (inactive),> 100 µM (inactive)
CC(Oc1ccc(Oc2cnc3ccc(Cl)cc3n2)cc1)C(=O)O (configuration not stated),> 100 µM (inactive),> 100 µM (inactive),> 100 µM (inactive),> 100 µM (inactive),> 100 µM (inactive),> 100 µM (inactive),,> 100 µM (inactive),> 100 µM (inactive)

# From ChEMBL document CHEMBL1201862, “PubChem BioAssay data set” (2004)
